{"source": "patent US20120115793A1", "about": "“PEPTIDOMIMETIC MACROCYCLES” (Alleron Therapeutics, Inc, priority 2008, published 2012)", "key": {"[1]": {"test_system": "human serum proteins (HSA)", "assay": "Apparent affinity to human serum proteins (Kd*) by EC50 shift analysis", "assay_type": "in vitro ADME", "excerpt": "The measurement of apparent Kd values for serum protein by EC50 shift analysis provides a simple and rapid means of quantifying the propensity of experimental compounds to bind HSA and other serum proteins. A linear relationship exists between the apparent EC50 in the presence of serum protein (EC'50) and the amount of serum protein added to an in vitro assay. This relationship is defined by the binding affinity of the compound for serum proteins, expressed as Kd*. This term is an experimentally determined, apparent dissociation constant that may result from the cumulative effects of multiple, experimentally indistinguishable, binding events. The form of this relationship is presented here in Eq. 0.3, and its derivation can be found in Copeland et al, Biorg. Med. Chem. Lett. 2004, 14:2309-2312.\nA significant proportion of serum protein binding can be ascribed to drug interactions with HSA, due to the very high concentration of this protein in serum (35-50 g/L or 530-758 μM). To calculate the Kd value for these compounds we have assumed that the shift in EC50 upon protein addition can be ascribed fully to the HSA present in the added serum, where P is 700 μM for 100% serum, P is 70 μM for 10% serum, etc. We further made the simplifying assumption that all of the compounds bind HSA with a 1:1 stoichiometry, so that the term n in Eq. (0.3) is fixed at unity. With these parameters in place we calculated the Kd* value for each stapled peptide from the changes in EC50 values with increasing serum (and serum protein) concentrations by nonlinear regression analysis of Eq. 0.3 using Mathematica 4.1 (Wolfram Research, Inc., www.wolfram.com). EC'50 values in whole blood are estimated by setting P in Eq. 0.3 to 700 μM [HSA].\nThe free fraction in blood is estimated using the following equation, as derived by Trainor, Expert Opin. Drug Disc., 2007, 2(1):51-64, where [HSA] total is set at 700 μM.\nThe following macrocycles derived from the human MAML peptide sequences were tested in cell viability assays (described above) with the MOLT-4 tumor cell line at a range of human serum protein concentrations to determine their apparent affinity to human serum proteins and the projected EC50s in whole human blood: […]"}, "Molt-4 cell line": {"test_system": "Molt-4 cell line", "assay_type": "cell-based", "protocol": "Molt-4 cell line (ATCC catalog #CRL-1582) was grown in specific serum-supplemented media (RPMI-1640, Invitrogen catalog #72400) as recommended by ATCC. A day prior to the initiation of the study, cells were split at optimal cell density (2×10^5-5×10^5 cells/ml) to assure actively dividing cells. The next day, cells were washed twice in serum-free Opti-MEM media (Invitrogen, Catalog #51985) and cells were then plated at optimal cell density (10,000 cells/well) in 50 μl Opti-MEM media or Opti-MEM supplemented with 2%, 4% or 10% human serum (Bioreclamation, catalog #HMSRM) in 96-well white tissue culture plate (Nunc, catalog #136102).\nFor serum free experiment, peptidomimetic macrocycles were diluted from 2 mM stocks (100% DMSO) in sterile water to prepare 400 μM working solutions. The macrocycles and controls were diluted 10-fold first and then serially two-fold diluted in Opti-MEM in dosing plates to provide concentrations of between 1.2 and 40 μM. 50 μL of each dilution was then added to the appropriate wells of the test plate to achieve final concentrations of the polypeptides equal to between 0.6 to 20 μM. For studies using Opti-MEM supplemented with human serum (Bioreclamation, catalog #HMSRM), peptidomimetic macrocycles were diluted from 10 mM stocks (100% DMSO) in sterile water to prepare 2 mM working solutions. The peptide macrocycles and controls were diluted 10-fold first and then serially two-fold diluted in Opti-MEM in the presence of 2%, 4% or 10% of human serum to provide concentrations of the polypeptides equal to between 6.25 to 200 μM in dosing plates. 50 μL of each dilution was then added to the appropriate welts of the test plate to achieve final concentrations of the polypeptides equal to between 3.125 to 100 μM. Controls included wells without polypeptides containing the same concentration of DMSO as the wells containing the macrocycles, wells containing 0.1% Triton X-100 and wells containing no cells. Plates were incubated for 48 hours at 37° C. in humidified 5% CO2 atmosphere.\nAt the end of the incubation period, CellTiter-Glo assay was performed according to manufacturer's instructions (Promega, catalog #G7573) and luminescence was measured using Synergy HT Plate reader (BioTek).\nThe following macrocycles derived from the human MAML peptide sequences were tested in cell viability assays with the MOLT-4 tumor cell line: […]"}}, "note": "pEC50, pKd: −log10 of the molar value. Where two headings read alike, the source gives them in different places. Where a SMILES comes first, the peptide text is derived from it. Bridges are numbered along the chain shown (N, C = ends). [ ]: non-standard residue; d: D form. R8 = C=CCCCCCC[C@@](C)(N)C(=O)O; S5 = C=CCCC[C@](C)(N)C(=O)O; Abu = CC[C@H](N)C(=O)O"}
{"smiles": "CC[C@H](C)[C@H](NC(=O)[C@H](CCCNC(=N)N)NC(=O)[C@H](CCCNC(=N)N)NC(=O)[C@H](CCCNC(=N)N)NC(=O)[C@H](CC(C)C)NC(=O)[C@H](CCCNC(=N)N)NC(=O)[C@H](CCC(=O)O)NC(C)=O)C(=O)N[C@@]1(C)CCCC=CCCC[C@@](C)(C(=O)N[C@@H](Cc2c[nH]cn2)C(=O)N[C@@H](Cc2c[nH]cn2)C(=O)N[C@@H](CO)C(=O)N[C@H](C(N)=O)[C@@H](C)O)NC(=O)[C@H](CCCNC(=N)N)NC(=O)[C@H](CS)NC(=O)[C@H](CC(C)C)NC1=O", "note": "[Compound 1, Ac-ERLRRRI$LCR$HHST-NH2] (Ac-ERLRRRI[S5]LCR[S5]HHST-NH2; staple 8-12)", "values": [{"measurement": "pKd", "setting": "[1]; human", "value": "> 7.00"}, {"measurement": "fraction unbound", "setting": "[1]; human, serum", "value": "< 0.001"}]}
{"smiles": "CC[C@H](C)[C@H](NC(=O)[C@H](CCCNC(=N)N)NC(=O)[C@H](CCCNC(=N)N)NC(=O)[C@H](CCCNC(=N)N)NC(=O)[C@H](CC(C)C)NC(=O)[C@H](CCCNC(=N)N)NC(=O)[C@H](CCC(=O)O)NC(C)=O)C(=O)N[C@@]1(C)CCCC=CCCC[C@@](C)(C(=O)N[C@@H](Cc2c[nH]cn2)C(=O)N[C@@H](Cc2c[nH]cn2)C(=O)N[C@@H](CO)C(=O)N[C@H](C(N)=O)[C@@H](C)O)NC(=O)[C@H](CCCNC(=N)N)NC(=O)[C@H](C)NC(=O)[C@H](CC(C)C)NC1=O", "note": "[Compound 4, Ac-ERLRRRI$LAR$HHST-NH2] (Ac-ERLRRRI[S5]LAR[S5]HHST-NH2; staple 8-12)", "values": [{"measurement": "pKd", "setting": "[1]; human", "value": "> 7.00"}, {"measurement": "fraction unbound", "setting": "[1]; human, serum", "value": "< 0.001"}, {"measurement": "pEC50", "setting": "Molt-4 cell line; 48 h", "value": "< 4.70"}]}
{"smiles": "CC[C@H](C)[C@H](NC(=O)[C@H](CCCNC(=N)N)NC(=O)[C@H](CCCNC(=N)N)NC(=O)[C@H](CCCNC(=N)N)NC(=O)[C@H](CC(C)C)NC(=O)[C@H](C)NC(C)=O)C(=O)N[C@@]1(C)CCCC=CCCC[C@@](C)(C(=O)N[C@@H](Cc2c[nH]cn2)C(=O)N[C@@H](Cc2c[nH]cn2)C(=O)N[C@@H](CO)C(=O)N[C@H](C(N)=O)[C@@H](C)O)NC(=O)[C@H](C)NC(=O)[C@H](CS)NC(=O)[C@H](CC(C)C)NC1=O", "note": "[Compound 19, Ac-ALRRRI$LCA$HHST-NH2] (Ac-ALRRRI[S5]LCA[S5]HHST-NH2; staple 7-11)", "values": [{"measurement": "fraction unbound", "setting": "[1]; human, estimated with [HSA] total set at 700 μM, read-out: Free Fraction est. in blood", "value": 0.001}, {"measurement": "pKd", "setting": "[1]; nonlinear regression of EC50 shift with increasing human serum, 1:1 HSA binding assumed, 700 μM HSA for 100% serum, read-out: Serum Kd*", "value": 6.22}]}
{"smiles": "CC[C@H](C)[C@H](NC(=O)[C@H](CCCNC(=N)N)NC(=O)[C@H](CCCNC(=N)N)NC(=O)[C@H](CCCNC(=N)N)NC(=O)[C@H](CC(C)C)NC(=O)[C@H](C)NC(C)=O)C(=O)N[C@@H](CCC(=O)O)C(=O)N[C@@H](CC(C)C)C(=O)N[C@@H](C)C(=O)N[C@@H](C)C(=O)N[C@@H](CCCNC(=N)N)C(=O)N[C@@H](Cc1c[nH]cn1)C(=O)N[C@@H](Cc1c[nH]cn1)C(=O)N[C@@]1(C)CCCC=CCCC[C@@](C)(C(=O)N[C@@H](CCCNC(=N)N)C(=O)N[C@@H](Cc2ccc(O)cc2)C(=O)N[C@@H](CCC(=O)O)C(=O)N[C@@H](C)C(=O)N[C@H](C(N)=O)C(C)C)NC(=O)[C@H](CCC(=O)O)NC(=O)[C@H](C)NC(=O)[C@H]([C@@H](C)O)NC1=O", "note": "[Compound 24, Ac-ALRRRIELAARHH$TAE$RYEAV-NH2] (Ac-ALRRRIELAARHH[S5]TAE[S5]RYEAV-NH2; staple 14-18)", "values": [{"measurement": "pEC50", "setting": "Molt-4 cell line; 48 h", "value": "< 4.70"}]}
{"smiles": "CC[C@H](NC(=O)[C@H](CC(C)C)NC(=O)[C@H](CCC(=O)O)NC(=O)[C@@H](NC(=O)[C@H](CCCNC(=N)N)NC(=O)[C@H](CCCNC(=N)N)NC(=O)[C@H](CCCNC(=N)N)NC(=O)[C@H](CC(C)C)NC(=O)[C@H](C)NC(C)=O)[C@@H](C)CC)C(=O)N[C@@H](C)C(=O)N[C@]1(C)CCCCCCC=CCCC[C@@](C)(C(=O)N[C@@H](CCCNC(=N)N)C(=O)N[C@@H](Cc2ccc(O)cc2)C(=O)N[C@@H](CCC(=O)O)C(=O)N[C@@H](C)C(=O)N[C@H](C(N)=O)C(C)C)NC(=O)[C@H](CCC(=O)O)NC(=O)[C@H](CC)NC(=O)[C@H]([C@@H](C)O)NC(=O)[C@H](CO)NC(=O)[C@H](Cc2c[nH]cn2)NC(=O)[C@H](Cc2c[nH]cn2)NC1=O", "note": "[Compound 25, Ac-ALRRRIELAbuA$r8HHSTAbuE$RYEAV-NH2] (Ac-ALRRRIEL[Abu]A[R8]HHST[Abu]E[S5]RYEAV-NH2; staple 11-18)", "values": [{"measurement": "pEC50", "setting": "Molt-4 cell line; MOLT-4 cells, 48 hours incubation, CellTiter-Glo, read-out: Molt 4 viability (EC50)", "value": "< 4.70"}]}
{"smiles": "CC[C@@H]1NC(=O)[C@H](CC(C)C)NC(=O)[C@@](C)(NC(=O)[C@@H](NC(=O)[C@H](CCCNC(=N)N)NC(=O)[C@H](CCCNC(=N)N)NC(=O)[C@H](CCCNC(=N)N)NC(=O)[C@H](CC(C)C)NC(=O)[C@H](C)NC(C)=O)[C@@H](C)CC)CCCC=CCCC[C@@](C)(C(=O)N[C@@H](Cc2c[nH]cn2)C(=O)N[C@@H](Cc2c[nH]cn2)C(=O)N[C@@H](CO)C(=O)N[C@H](C(=O)N[C@@H](C)C(=O)N[C@@H](CCC(=O)O)C(=O)N[C@@H](C)C(=O)N[C@@H](CCCNC(=N)N)C(=O)N[C@@H](Cc2ccc(O)cc2)C(=O)N[C@@H](CCC(=O)O)C(=O)N[C@@H](C)C(=O)N[C@H](C(N)=O)C(C)C)[C@@H](C)O)NC(=O)[C@H](C)NC1=O", "note": "[Compound 26, Ac-ALRRRI$LAbuA$HHSTAEARYEAV-NH2] (Ac-ALRRRI[S5]L[Abu]A[S5]HHSTAEARYEAV-NH2; staple 7-11)", "values": [{"measurement": "pEC50", "setting": "Molt-4 cell line; 48 h", "value": "< 4.70"}]}
{"smiles": "CC[C@@H]1NC(=O)[C@H](CC(C)C)NC(=O)[C@@](C)(NC(=O)[C@@H](NC(=O)[C@H](CCCNC(=N)N)NC(=O)[C@H](CCCNC(=N)N)NC(=O)[C@H](CCCNC(=N)N)NC(=O)[C@H](CC(C)C)NC(=O)[C@H](C)NC(=O)[C@H](CCCNC(=N)N)NC(C)=O)[C@@H](C)CC)CCCC=CCCC[C@@](C)(C(=O)N[C@@H](Cc2c[nH]cn2)C(=O)N[C@@H](Cc2c[nH]cn2)C(=O)N[C@@H](CO)C(=O)N[C@H](C(N)=O)[C@@H](C)O)NC(=O)[C@H](C)NC1=O", "note": "[Compound 31, Ac-RALRRRI$LAbuA$HHST-NH2] (Ac-RALRRRI[S5]L[Abu]A[S5]HHST-NH2; staple 8-12)", "values": [{"measurement": "pEC50", "setting": "Molt-4 cell line; 48 h", "value": 5.43}]}
